Like-named read-outs stand apart in the source and are kept apart here.
Assays:
A2780 cells = assay: In vitro wound closure (cell migration), A2780; assay type: cell-based, human; conditions: A2780, up to 76 h
Method: A2780 cells and T47D cells were grown to confluence in separate cultures under conditions of 37° C., 5% CO2, and complete medium. At time zero, a pipette tip was dragged across the cells, producing a linear defect in the confluent layer of cells. Medium was then supplemented with various concentrations of DM-PIT-1, YK-NCL-176, or YK-NCL-240, or an equivalent volume of DMSO alone, and cells were maintained in culture for an additional 76 h. Linear defects were viewed with a microscope at 0, 21, 47, 69, and 76 h following addition of test agent, and the width of the defect was quantitated at each time point. This in vitro assay represents a model of wound closure.

A2780 ovarian carcinoma = assay: A2780 cell viability, CellTiter-Blue, free and micellar formulations; assay type: cell-based, human; conditions: for cytotoxicity on addition of TRAIL to the formulation: A2780, micellar formulation plus TRAIL; for cytotoxicity as free compound compared to DM-PIT-1: A2780, 24 h
Method: Cell viability of A2780 ovarian carcinoma was measured using CellTiter-Blue® (Promega, Madison, Wis.) viability assay. Briefly, cells were seeded in 96-well plates according to proper cell densities (3,000-5,000 cells). After 24 h incubation in 5% CO2 at 37° C., cells were treated with formulations at various concentrations for 24 h in serum complete media. After 24 h treatment, media was removed, the wells were washed with serum complete media and replaced with 50 μL media and 10 μL CellTiter-Blue®. Cell viability was evaluated after 4 h of incubation at 37° C. at 5% CO2 by measuring the fluorescence (ex. 550 nm, em. 590 nm) using a Synergy HT multi-detection microplate reader (Biotek, Winooski, Vt.).

[1] = test system: A2780 human ovarian cancer cells; assay: Cell viability of A2780 cells, ATP assay; assay type: cell-based; conditions: for concentration at which cell viability was reduced by at least 50 percent / cell viability in combination with TRAIL / EC50: A2780, 24 h; for concentration at which cell viability was reduced by at least 50 percent: alone; for cell viability in combination with TRAIL: versus compound alone; for EC50: Homo sapiens
Method: A2780 human ovarian cancer cells were maintained in culture at 37° C., 5% CO2, complete medium for 24 h in the presence of various final concentrations of DM-PIT-1, YK-NCL-176, YK-NCL-198, or NK-YCL-240, each in DMSO, with or without 1 μg/mL TRAIL. DMSO alone was used as a negative control. Following the incubation, cell viability was measured using an ATP assay.
A2780 human ovarian cancer cells were maintained in culture at 37° C., 5% CO2, complete medium for 24 h in the presence of various final concentrations of DM-PIT-1, YK-NCL-217, YK-NCL-218, NK-YCL-219, YK-NCL-220, YK-NCL-234, or YK-NCL-241, each in DMSO, with or without 1 μg/mL TRAIL. DMSO alone was used as a negative control. Following the incubation, cell viability was measured using an ATP assay.

[2] = Micellar drug loading by reverse phase HPLC; assay type: physicochemical; conditions: PEG-PE micelles, PEG-PE 13.07 mg/mL, n = 3 with SD
Method: Drug incorporation efficiency was measured by reverse phase HPLC using an Xbridge C18 ([…]) column (Waters Corporation, Milford, Mass.) on a Hitachi Elite LaChrom HPLC with autosampler (Pleasanton, Calif.). The HPLC method was modified from previously published method. Skidan I et al., J Chromatogr B Analyt Technol Biomed Life Sci 879:1610-1616 (2011). The mobile phase consisted of either 70:30 acetonitrile:water (DM-PIT-1) or 60:40 acetonitrile:water (NCL-176, NCL-179, NCL-198, NCL-240) with a flow rate of 1 mL/min. Detection of drug was performed at a wavelength corresponding to a peak on the absorption spectrum (DM-PIT-1: 320 nm, NCL-176: 260 nm, NCL-179: 295 nm, NCL-198: 295 nm, NCL-240: 300 nm). Sample injections were kept constant at 50 μL and the sample runtime was 10 min. Concentration of drug was determined by measuring the area under curve of the peak. Standard curves of stock drug in acetonitrile from concentrations of 10 μg/mL to 15 ng/mL were used to determine incorporation of drug in micelles. 5 μL of dialyzed drug-loaded micelles were diluted in 495 μL acetonitrile to destroy micelles.

[3] = test system: U87MG human glioblastoma cells; assay: Cell viability of U87MG cells, ATP assay; assay type: cell-based; conditions: for EC50: Homo sapiens, U-87 MG, 24 h
Method: U87MG human glioblastoma cells were maintained in culture at 37° C., 5% CO2, complete medium for 24 h in the presence of various final concentrations of YK-NCL-176, YK-NCL-177, YK-NCL-178, YK-NCL-179, YK-NCL-180, YK-NCL-183, YK-NCL-184, YK-NCL-185, YK-NCL-186, YK-NCL-187, YK-NCL-188, YK-NCL-189, YK-NCL-190, YK-NCL-191, YK-NCL-192, YK-NCL-193, YK-NCL-194, YK-NCL-195, YK-NCL-196, YK-NCL-197, NK-YCL-198, or YK-NCL-199, each in DMSO, with or without 1 μg/mL TRAIL. DMSO alone was used as a negative control. Following the incubation, cell viability was measured using an ATP assay.

[4] = Micellar drug release by dialysis; assay type: physicochemical; conditions: 37° C.
Method: Drug-loaded micelles were analyzed for their in vitro drug release profile at 37° C. in 1×PBS pH 7.4 over 48 hrs. Micelles were prepared as described previously. 500 μL of drug-loaded micelles were aliquoted into Spectra/Pro® regenerated cellulose dialysis membranes with a MWCO of 1,000 Da and dialyzed against a large excess of 1×PBS pH 7.4. At predetermined times, dialysis bags were opened and aliquots of sample were taken and diluted with 200 μL acetonitrile. Drug concentration was determined by HPLC using previously described methods.

[5] = test system: T47D human breast cancer cells; assay: Cell viability of T47D cells; assay type: cell-based
Akt PH domain = Akt PH domain (Homo sapiens, UniProt P31749); assay: Inhibition of Akt PH domain binding to PIP3; conditions: in vitro
Chain of Akt PH domain (P31749 5-108 limits assumed): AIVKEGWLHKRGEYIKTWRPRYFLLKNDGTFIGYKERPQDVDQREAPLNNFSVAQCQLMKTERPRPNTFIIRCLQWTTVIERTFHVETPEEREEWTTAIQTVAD

[6] = test system: DU145 human prostate cancer cells; assay: Cell viability of DU145 cells; assay type: cell-based
[7] = mouse, in vivo
[8] = in DMSO, without TRAIL, read-out: EC50 alone
[9] = with 1 μg/mL TRAIL, read-out: EC50 with TRAIL

Row | SMILES | inhibition of cell migration (wound closure) (A2780 cells) | cytotoxicity on addition of TRAIL to the formulation (A2780 ovarian carcinoma) | concentration at which cell viability was reduced by at least 50 percent [1] [µM] | cell viability in combination with TRAIL ([1]; with 1 μg/mL TRAIL) | EC50 [3, 8] [µM] | EC50 [3, 9] [µM] | cytotoxicity as free compound compared to DM-PIT-1 (A2780 ovarian carcinoma) | drug released from micelles ([4]; 1×PBS pH 7.4, after 48 h) [%] | other results
1 | O=C(c1ccccc1)c1cn(-c2cc(Cl)ccc2O)nn1 [YK-NCL-176, (1-(5-Chloro-2-hydroxyphenyl)-1H-1,2,3-triazol-4-yl)(phenyl)methanone] | significantly more effectively than DM-PIT-1 | markedly increased cytotoxicity | 25 | further reduced cell viability | 104 | 51.6 | – | – | Loading Eff. [2]: slightly lower loading; drug released from micelles ([4]; 1×PBS pH 7.4, at 10 h): completely released
2 | Oc1ccc(Cl)cc1-n1cc(C(O)(c2cc(C(F)(F)F)cc(C(F)(F)F)c2)c2cn(-c3cc(Cl)ccc3O)nn2)nn1 [YK-NCL-198, 2,2′-(((3,5-Bis(trifluoromethyl)phenyl)(hydroxy)methylene)bis(1H-1,2,3-triazole-4,1-diyl))bis(4-chlorophenol)] | – | – | 12.5 | further reduced cell viability | 34.8 | 18.8 | improved cytotoxicity properties | 40 | melting point: 214 °C
3 | O=C(c1cc(C(F)(F)F)cc(C(F)(F)F)c1)c1cn(-c2cc(Cl)ccc2O)nn1 [YK-NCL-240, (3,5-Bis(trifluoromethyl)phenyl)(1-(5-chloro-2-hydroxyphenyl)-1H-1,2,3-triazol-4-yl)methanone] | significantly more effectively than either DM-PIT-1 or YK-NCL-176 | markedly increased cytotoxicity | < 6.25 | further reduced cell viability | – | – | improved cytotoxicity properties | 60 | effect of combination with TRAIL on cell viability ([5]; 1 μg/mL TRAIL): synergistic effect; in vitro cell viability ([5]; in DMSO, alone): reduce in vitro cell viability; binding of the Akt PH domain to PIP3 (Akt PH domain): robustly inhibited; improvement of EC50 compared to DM-PIT-1 alone ([1]; A2780, alone): 15 fold; improvement of EC50 compared to the combination of DM-PIT-1 and TRAIL ([1]; A2780, with TRAIL): 20 fold; EC50 [1, 8]: 1.85 µM; EC50 [1, 9]: 1.11 µM; effect of combination with TRAIL on cell viability ([6]; DU145, 1 μg/mL TRAIL): synergistic effect; in vitro cell viability ([6]; DU145, in DMSO, alone): reduce in vitro cell viability; effect of combination with TRAIL on cell viability ([3]; 1 μg/mL TRAIL): synergistic effect; in vitro cell viability ([3]; in DMSO, alone): reduce in vitro cell viability; non-toxic dose [7]: up to 50 mg/kg

Reference: patent US9701646B2, “Small molecule inhibitors of PI3-kinase signaling” (Tufts University, priority 2013, dated 2017)
